Where “and” joins values, the source holds several entries; their conditions need not be identical. Equal values may be shown once. Entries after “also recorded” stand apart in the source; their conditions may differ.
How the values were obtained:
Format in all cases: in vivo, rat (male Sprague-Dawley)
[1] = Plasma free fatty acids, glucose and ketone bodies after 7 days of infusion
Procedure: (§1) Infusate volume, oral food intake, body weight and urinary volume and total nitrogen were monitored daily for each rat. Infusate volume and food intake were determined by weighing the appropriate container at the start and end of each 24 hr. period. Measurements were recorded between 9 and 10 AM each day. At the end of the 7th day, rats were sacrificed, and blood and liver were harvested. Plasma was separated for measurement of free fatty acids, glucose, and ketone bodies. Liver was weighed and a sample was fixed in buffered formalin for gross histology.
(§2) The data were analyzed for significance by the one-way analysis of variance with repeated measures and comparing the effect of dietary treatment on each day. […] The null hypothesis was concluded invalid if p≤0.05. The analysis of variance was computed on a SAS statistical package.

[2] = Daily urinary nitrogen losses of intravenously infused rats
Procedure: (§3) Water was available ad libitum at all times.
(§4) The vein was then ligated dorsally to the catheter. […] Body weights were measured daily.
as §1
The data were analyzed for significance by the one-way analysis of variance with repeated measures and comparing the effect of dietary treatment on each day. […] The null hypothesis was concluded invalid if p≤0.05. The analysis of variance was computed on a SAS statistical package. […]

[3] = Daily body weight of intravenously infused rats
Procedure: as §3, §4, §1, §2
This compound has an estimated energy density of 4.86 kcal/gram based on thermodynamic data from similar compounds.

[4] = Table 11, Example 4, plasma, average
[5] = Table 11, Example 4, plasma, individual rat

OC[C@H]1OC(O)[C@H](O)[C@@H](O)[C@@H]1O (stereo partly drawn) [Glucose, glucose, reference compound]
Glucose [1, 4]: 214.433 mg/dL
Total FFA [1, 4]: 0.341 mmol/L
ACAC [1, 5]: 0.0085 mmol/L and 0.1195 mmol/L and 0.0177 mmol/L and 0.0095 mmol/L and 0.0038 mmol/L and 0.0145 mmol/L
BOHB [1, 5]: 0.5282 mmol/L and 0.5088 mmol/L and 0.5936 mmol/L and 0.2075 mmol/L and 0.6958 mmol/L and 0.6475 mmol/L and 0.3727 mmol/L and 0.4066 mmol/L and 0.651 mmol/L
Glucose [1, 5]: 263.3 mg/dL and 203.5 mg/dL and 429.3 mg/dL and 208 mg/dL and 284.8 mg/dL and 163.5 mg/dL and 124.9 mg/dL and 116.6 mg/dL
Total FFA [1, 5]: 0.327 mmol/L and 0.231 mmol/L and 0.462 mmol/L and 0.434 mmol/L and 0.525 mmol/L and 0.303 mmol/L and 0.206 mmol/L and 0.395 mmol/L and 0.19 mmol/L
blood / plasma glucose ([1]; in words, end of day 7): significantly elevatea plasma glucose; also recorded: higher for glucose infused rats than for the other two groups
free fatty acid concentration ([1]; in words, plasma, end of day 7): not different for the three groups
Urinary Nitrogen ([2]; Table 2, Example 2, day 1, average of 7 rats): 144 mg
Urinary Nitrogen ([2]; Table 2, Example 2, day 1, individual rat): 164.08 mg and 92.04 mg and 219.2 mg and 80.25 mg and 78.51 mg and 282.44 mg and 88.28 mg
Urinary Nitrogen ([2]; Table 2, Example 2, day 2, average of 7 rats): 146 mg
Urinary Nitrogen ([2]; Table 2, Example 2, day 2, individual rat): 131.95 mg and 74.58 mg and 311.7 mg and 147.44 mg and 42.51 mg and 224.09 mg and 88.37 mg
Urinary Nitrogen ([2]; Table 2, Example 2, day 3, average of 7 rats): 203 mg
Urinary Nitrogen ([2]; Table 2, Example 2, day 3, individual rat): 58.42 mg and 94.88 mg and 599.66 mg and 115.01 mg and 145.05 mg and 174.3 mg and 236.92 mg
Urinary Nitrogen ([2]; Table 2, Example 2, day 4, average of 7 rats): 129 mg
Urinary Nitrogen ([2]; Table 2, Example 2, day 4, individual rat): 109.72 mg and 80.52 mg and 274.22 mg and 93.31 mg and 78.6 mg and 145.43 mg and 124.12 mg
Urinary Nitrogen ([2]; Table 2, Example 2, day 5, average of 7 rats): 177 mg
Urinary Nitrogen ([2]; Table 2, Example 2, day 5, individual rat): 111.02 mg and 125.89 mg and 316.17 mg and 84.8 mg and 224.34 mg and 241.17 mg and 137.97 mg
Urinary Nitrogen ([2]; Table 2, Example 2, day 6, average of 7 rats): 178 mg
Urinary Nitrogen ([2]; Table 2, Example 2, day 6, individual rat): 114.67 mg and 65.54 mg and 227.23 mg and 135.24 mg and 118.95 mg and 333.85 mg and 252.42 mg
Urinary Nitrogen ([2]; Table 2, Example 2, day 7, average of 7 rats): 218 mg
Urinary Nitrogen ([2]; Table 2, Example 2, day 7, individual rat): 71.89 mg and 105.54 mg and 474.91 mg and 159.89 mg and 124.66 mg and 267 mg and 319.39 mg
Urinary Nitrogen ([2]; Table 8, Example 4, day 1, average of 9 rats): 128 mg
Urinary Nitrogen ([2]; Table 8, Example 4, day 1, individual rat): 252 mg and 114.8 mg and 82.1 mg and 75.4 mg and 22.4 mg and 158.4 mg and 133.9 mg and 148.3 mg and 164.3 mg
Urinary Nitrogen ([2]; Table 8, Example 4, day 2, average of 9 rats): 135 mg
Urinary Nitrogen ([2]; Table 8, Example 4, day 2, individual rat): 266.4 mg and 153.9 mg and 105 mg and 57 mg and 91.8 mg and 159.8 mg and 111 mg and 108.9 mg and 158 mg
Urinary Nitrogen ([2]; Table 8, Example 4, day 3, average of 9 rats): 106 mg
Urinary Nitrogen ([2]; Table 8, Example 4, day 3, individual rat): 151 mg and 89.1 mg and 107.2 mg and 68.4 mg and 118.3 mg and 131.9 mg and 135.4 mg and 59.8 mg and 91.8 mg
Urinary Nitrogen ([2]; Table 8, Example 4, day 4, average of 9 rats): 125 mg
Urinary Nitrogen ([2]; Table 8, Example 4, day 4, individual rat): 127.2 mg and 92.7 mg and 114.8 mg and 44.5 mg and 73.8 mg and 165.9 mg and 168.7 mg and 93.6 mg and 240.1 mg
Urinary Nitrogen ([2]; Table 8, Example 4, day 5, average of 9 rats): 131 mg
Urinary Nitrogen ([2]; Table 8, Example 4, day 5, individual rat): 127.8 mg and 97.7 mg and 93.7 mg and 45.9 mg and 84.8 mg and 236.3 mg and 166.4 mg and 123.4 mg and 203.2 mg
Urinary Nitrogen ([2]; Table 8, Example 4, day 6, average of 9 rats): 172 mg
Urinary Nitrogen ([2]; Table 8, Example 4, day 6, individual rat): 256.3 mg and 104.9 mg and 133.7 mg and 72.7 mg and 138.3 mg and 307.5 mg and 146.9 mg and 169.4 mg and 215.2 mg
Urinary Nitrogen ([2]; Table 8, Example 4, day 7, average of 9 rats): 162 mg
Urinary Nitrogen ([2]; Table 8, Example 4, day 7, individual rat): 118.3 mg and 106.6 mg and 175.8 mg and 22.6 mg and 145.6 mg and 384.8 mg and 126.8 mg and 162.4 mg and 212.8 mg
urinary nitrogen losses ([2]; in words, 7 days): Saline infused rats also lost more nitrogen in the urine than did glucose infused rats
Daily Body Weight ([3]; Table 4, Example 2, day 0, average of 7 rats): 258 Grams
Daily Body Weight ([3]; Table 4, Example 2, day 0, individual rat): 244 Grams and 228 Grams and 290 Grams and 250 Grams and 247 Grams and 281 Grams and 269 Grams
Daily Body Weight ([3]; Table 4, Example 2, day 1, average of 7 rats): 262 Grams
Daily Body Weight ([3]; Table 4, Example 2, day 1, individual rat): 238 Grams and 217 Grams and 329 Grams and 236 Grams and 244 Grams and 286 Grams and 284 Grams
Daily Body Weight ([3]; Table 4, Example 2, day 2, average of 7 rats): 257 Grams
Daily Body Weight ([3]; Table 4, Example 2, day 2, individual rat): 234 Grams and 211 Grams and 298 Grams and 233 Grams and 248 Grams and 293 Grams and 281 Grams
Daily Body Weight ([3]; Table 4, Example 2, day 3, average of 7 rats): 263 Grams
Daily Body Weight ([3]; Table 4, Example 2, day 3, individual rat): 229 Grams and 209 Grams and 337 Grams and 231 Grams and 266 Grams and 282 Grams and 286 Grams
Daily Body Weight ([3]; Table 4, Example 2, day 4, average of 7 rats): 259 Grams
Daily Body Weight ([3]; Table 4, Example 2, day 4, individual rat): 232 Grams and 207 Grams and 315 Grams and 226 Grams and 246 Grams and 295 Grams and 291 Grams
Daily Body Weight ([3]; Table 4, Example 2, day 5, average of 7 rats): 251 Grams
Daily Body Weight ([3]; Table 4, Example 2, day 5, individual rat): 232 Grams and 212 Grams and 278 Grams and 222 Grams and 240 Grams and 279 Grams and 294 Grams
Daily Body Weight ([3]; Table 4, Example 2, day 6, average of 7 rats): 255 Grams
Daily Body Weight ([3]; Table 4, Example 2, day 6, individual rat): 257 Grams and 230 Grams and 274 Grams and 220 Grams and 238 Grams and 293 Grams
Daily Body Weight ([3]; Table 4, Example 2, day 7, average of 7 rats): 249 Grams
Daily Body Weight ([3]; Table 4, Example 2, day 7, individual rat): 245 Grams and 228 Grams and 251 Grams and 226 Grams and 230 Grams and 268 Grams and 297 Grams
Daily Body Weight ([3]; Table 10, Example 4, day 0, average of 9 rats): 252 Grams
Daily Body Weight ([3]; Table 10, Example 4, day 0, individual rat): 254 Grams and 288 Grams and 263 Grams and 251 Grams and 227 Grams and 260 Grams and 249 Grams and 233 Grams and 247 Grams
Daily Body Weight ([3]; Table 10, Example 4, day 1, average of 9 rats): 249 Grams
Daily Body Weight ([3]; Table 10, Example 4, day 1, individual rat): 247 Grams and 292 Grams and 256 Grams and 225 Grams and 259 Grams and 241 Grams and 227 Grams and 244 Grams
Daily Body Weight ([3]; Table 10, Example 4, day 2, average of 9 rats): 252 Grams
Daily Body Weight ([3]; Table 10, Example 4, day 2, individual rat): 261 Grams and 290 Grams and 267 Grams and 246 Grams and 224 Grams and 259 Grams and 237 Grams and 235 Grams and 245 Grams
Daily Body Weight ([3]; Table 10, Example 4, day 3, average of 9 rats): 251 Grams
Daily Body Weight ([3]; Table 10, Example 4, day 3, individual rat): 260 Grams and 292 Grams and 269 Grams and 240 Grams and 227 Grams and 264 Grams and 244 Grams and 234 Grams and 229 Grams
Daily Body Weight ([3]; Table 10, Example 4, day 4, average of 9 rats): 258 Grams
Daily Body Weight ([3]; Table 10, Example 4, day 4, individual rat): 263 Grams and 297 Grams and 273 Grams and 239 Grams and 234 Grams and 282 Grams and 248 Grams and 245 Grams
Daily Body Weight ([3]; Table 10, Example 4, day 5, average of 9 rats): 257 Grams
Daily Body Weight ([3]; Table 10, Example 4, day 5, individual rat): 268 Grams and 298 Grams and 270 Grams and 237 Grams and 239 Grams and 250 Grams and 241 Grams
Daily Body Weight ([3]; Table 10, Example 4, day 6, average of 9 rats): 263 Grams
Daily Body Weight ([3]; Table 10, Example 4, day 6, individual rat): 263 Grams and 302 Grams and 267 Grams and 241 Grams and 259 Grams and 268 Grams and 254 Grams and 245 Grams and 271 Grams
Daily Body Weight ([3]; Table 10, Example 4, day 7, average of 9 rats): 259 Grams
Daily Body Weight ([3]; Table 10, Example 4, day 7, individual rat): 264 Grams and 305 Grams and 272 Grams and 237 Grams and 247 Grams and 261 Grams and 249 Grams and 244 Grams and 255 Grams

Reference: patent US5420335A, “Parenteral nutrients based on watersoluble glycerol bisacetoacetates” (priority 1993, dated 1995)
